Experimental findings from patent US20250236608A1, “EGFR INHIBITORS” (Blueprint Medicines Corporation, priority 2022, published 2025) are described below.

In one assay the target is EGFR L858R (Homo sapiens (Human), UniProt P00533, L858R). The assay is described as follows: Biochemical EGFR inhibition assay, EGFR L858R. Particulars: Caliper mobility shift; 1.0 mM ATP or ATP Km; read-out: Enz EGFR_L858R IC50. The method, then: (§1) Reactions proceeded until between 10% to 20% total peptides were phosphorylated at room temperature (25° C.) and were terminated with 35 mM 2,2′,2″,2″-(ethane-1,2-diyldinitrilo)tetraacetic acid (EDTA). Product was detected using the Caliper mobility shift detection method where the phosphorylated peptide (product) and substrate were electrophoretically separated and measured. Percent activity was plotted against log concentration of compound and points to generate an apparent IC50.

The target in assay [1] is pEGFR (Tyr1068) in PC-9 cells (Ex19Del) (Homo sapiens (Human), UniProt P00533, DEL746-750). The experiment in a line: PC-9 pEGFR AlphaLISA assay. The format is cell-based. The settings on record: 4 hours incubation, p-EGFR (Tyr1068) AlphaLISA, read-out: Ext pEGFR_PC-9 Ex19Del IC50. As for the experimental part:
PC-9/A431 pEGFR AlphaLISA Assays
Inhibitory effects of compounds were evaluated in cellular assays that measure level of intracellular phosphorylation of EGFR in PC-9 (ECACC, #90071810, Milipore/Sigma) and A431 cell lines (ATCC, CRL-1555) using AlphaLISA sureFire ultra p-EGFR (Tyr1068) assay kit (PerkinElmer, ALSU-PEGFR-A50K). PC-9 cells were seeded at 3.125×10^5 cells/ml in 40 μL phenol-free DMEM supplemented with 10% FBS per well of a 384 well plate (Corning, 3764), while A431 were seeded at 3.125×10^5 cells/ml in 40 μL in phenol-free DMEM with 0.5% FBS. Cells were allowed to adhere overnight at 37° C./5% CO2. On the next day, compounds were transferred at 4-fold, 10-point serial dilution from compound source plate to cell plates using liquid handler Echo550 and were incubated at 37° C./5% CO2 for 4 hours. A431 cells were stimulated prior harvesting for 10 min with EGF at final concentration of 30 ng/ml in the incubator. Medium was removed from the plates and cells were lysed with 10 μL of 1× AlphaLISA lysis buffer (supplemented with 1× protease/phosphatase inhibitor cocktail) followed by shaking at 600 rpm for 30 minutes at room temperature. Lysates were transferred to Optiplate (Apricot designs) and 5 μl of 1× acceptor bead mix (prepared just before use) was added to each well followed by incubation at room temperature for 1.5-2 h in dark. Then 5 μL of freshly-made donor bead mix is added to each well under subdued lighting or green filters, was mixed well on the shaker and the plate was sealed and left for an overnight incubation at room temperature in dark. On the next day, the plate was read the Envision using standard AlphaLisa settings. Percent of pEGFR inhibition was plotted against log concentration of compounds to generate IC50 values.

The next assay addresses EGFR (d746-750) (Homo sapiens (Human), UniProt P00533, DEL746-750). The assay is described as follows: Biochemical EGFR inhibition assay, EGFR (d746-750). The settings on record: Caliper mobility shift; 1.0 mM ATP or ATP Km; read-out: Enz EGFR_Exon19-del746-750 IC50. As for the experimental part: as §1

Sequence of EGFR L858R (P00533 25-1210 L858R): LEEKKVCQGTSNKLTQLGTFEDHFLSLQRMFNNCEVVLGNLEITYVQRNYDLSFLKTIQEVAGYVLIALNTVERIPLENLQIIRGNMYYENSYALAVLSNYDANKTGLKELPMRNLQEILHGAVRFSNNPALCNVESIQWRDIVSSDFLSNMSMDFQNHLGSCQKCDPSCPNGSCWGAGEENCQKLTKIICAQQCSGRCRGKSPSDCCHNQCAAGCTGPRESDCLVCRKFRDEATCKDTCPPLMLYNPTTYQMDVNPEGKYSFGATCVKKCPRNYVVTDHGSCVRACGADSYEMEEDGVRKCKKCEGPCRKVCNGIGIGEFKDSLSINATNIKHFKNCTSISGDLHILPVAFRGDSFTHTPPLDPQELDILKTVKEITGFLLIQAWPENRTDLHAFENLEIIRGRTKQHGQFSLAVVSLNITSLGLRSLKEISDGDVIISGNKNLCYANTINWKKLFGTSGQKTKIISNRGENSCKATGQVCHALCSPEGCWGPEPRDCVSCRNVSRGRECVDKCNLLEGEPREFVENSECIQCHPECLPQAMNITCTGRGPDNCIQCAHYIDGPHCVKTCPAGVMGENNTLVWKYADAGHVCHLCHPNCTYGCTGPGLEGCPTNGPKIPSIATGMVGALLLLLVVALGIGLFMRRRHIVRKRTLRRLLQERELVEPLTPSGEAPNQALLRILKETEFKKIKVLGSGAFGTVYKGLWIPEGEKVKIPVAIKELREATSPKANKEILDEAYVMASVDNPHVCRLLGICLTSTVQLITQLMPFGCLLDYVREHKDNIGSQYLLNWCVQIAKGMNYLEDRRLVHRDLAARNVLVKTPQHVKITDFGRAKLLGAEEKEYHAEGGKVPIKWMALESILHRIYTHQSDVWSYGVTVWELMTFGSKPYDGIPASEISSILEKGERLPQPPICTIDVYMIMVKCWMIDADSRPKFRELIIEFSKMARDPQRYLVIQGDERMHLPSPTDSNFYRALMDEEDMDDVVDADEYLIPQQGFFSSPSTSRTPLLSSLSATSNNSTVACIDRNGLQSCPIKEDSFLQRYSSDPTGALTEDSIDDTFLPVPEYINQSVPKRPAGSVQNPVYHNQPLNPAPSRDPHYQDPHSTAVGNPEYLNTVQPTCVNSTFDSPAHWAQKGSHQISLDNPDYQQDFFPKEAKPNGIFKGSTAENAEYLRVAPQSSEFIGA
Sequence of pEGFR (Tyr1068) in PC-9 cells (Ex19Del) (P00533 other isoform, or with tags, fused parts or gaps del 746-750): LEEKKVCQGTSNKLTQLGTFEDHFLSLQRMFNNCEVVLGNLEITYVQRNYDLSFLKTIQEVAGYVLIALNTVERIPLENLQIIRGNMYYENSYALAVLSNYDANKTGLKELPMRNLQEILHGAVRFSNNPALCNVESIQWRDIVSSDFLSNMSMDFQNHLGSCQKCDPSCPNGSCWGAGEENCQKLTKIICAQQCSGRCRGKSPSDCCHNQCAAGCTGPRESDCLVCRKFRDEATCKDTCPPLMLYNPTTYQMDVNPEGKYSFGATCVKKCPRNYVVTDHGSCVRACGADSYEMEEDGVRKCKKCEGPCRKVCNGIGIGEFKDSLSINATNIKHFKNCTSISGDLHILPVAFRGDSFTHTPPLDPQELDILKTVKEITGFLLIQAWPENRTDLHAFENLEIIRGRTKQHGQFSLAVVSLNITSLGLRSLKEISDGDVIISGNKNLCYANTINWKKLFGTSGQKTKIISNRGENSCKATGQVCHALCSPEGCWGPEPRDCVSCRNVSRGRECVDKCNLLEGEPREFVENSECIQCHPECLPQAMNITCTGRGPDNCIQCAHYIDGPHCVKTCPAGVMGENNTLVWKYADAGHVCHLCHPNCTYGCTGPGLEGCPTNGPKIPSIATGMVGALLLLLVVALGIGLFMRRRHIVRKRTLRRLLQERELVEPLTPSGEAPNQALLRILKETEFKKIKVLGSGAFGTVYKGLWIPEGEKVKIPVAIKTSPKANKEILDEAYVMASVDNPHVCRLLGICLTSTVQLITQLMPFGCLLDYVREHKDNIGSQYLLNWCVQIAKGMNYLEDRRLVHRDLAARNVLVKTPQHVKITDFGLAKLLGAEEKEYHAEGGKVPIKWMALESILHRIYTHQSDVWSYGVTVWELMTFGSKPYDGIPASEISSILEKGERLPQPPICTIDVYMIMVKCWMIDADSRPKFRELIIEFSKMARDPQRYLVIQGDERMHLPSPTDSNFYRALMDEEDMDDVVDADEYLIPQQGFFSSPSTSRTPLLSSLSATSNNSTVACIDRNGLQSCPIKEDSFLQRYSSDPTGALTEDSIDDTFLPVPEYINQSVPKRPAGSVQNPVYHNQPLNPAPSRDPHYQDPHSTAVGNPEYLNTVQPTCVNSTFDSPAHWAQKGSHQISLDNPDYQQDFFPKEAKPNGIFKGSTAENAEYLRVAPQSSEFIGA
Sequence of EGFR (d746-750) (P00533 other isoform, or with tags, fused parts or gaps del 1-694/del 746-750 limits assumed): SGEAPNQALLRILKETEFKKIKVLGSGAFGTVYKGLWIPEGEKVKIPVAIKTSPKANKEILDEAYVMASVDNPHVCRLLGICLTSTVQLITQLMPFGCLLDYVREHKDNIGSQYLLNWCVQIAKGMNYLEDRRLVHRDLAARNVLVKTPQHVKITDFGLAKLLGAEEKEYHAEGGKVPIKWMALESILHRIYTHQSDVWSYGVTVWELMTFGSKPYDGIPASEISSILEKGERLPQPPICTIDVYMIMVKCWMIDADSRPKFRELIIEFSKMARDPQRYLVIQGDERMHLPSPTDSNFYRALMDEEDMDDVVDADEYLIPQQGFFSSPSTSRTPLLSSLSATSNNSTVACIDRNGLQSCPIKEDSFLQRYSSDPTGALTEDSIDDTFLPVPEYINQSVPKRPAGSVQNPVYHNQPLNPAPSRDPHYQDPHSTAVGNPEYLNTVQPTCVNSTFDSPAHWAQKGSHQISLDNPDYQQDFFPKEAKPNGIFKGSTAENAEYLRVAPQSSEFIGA

For `CCOc1cc2ncnc(-c3cn(C)nc3-c3ccccc3)c2cc1[C@@H](C)O` (single isomer, unassigned) [Example 104, (R)-1-(7-ethoxy-4-(1-methyl-3-phenyl-1H-pyrazol-4-yl)quinazolin-6-yl)ethan-1-ol or (S)-1-(7-ethoxy-4-(1-methyl-3-phenyl-1H-pyrazol-4-yl)quinazolin-6-yl)ethan-1-ol], the IC50 at EGFR L858R was 2.1 nM; in assay [1], 5.2 nM; at EGFR (d746-750), 1.3 nM.
On the same counts, the results for `CCn1cc(-c2ncnc3cc(OC)c([C@H](C)O)cc23)c(-c2ccccc2)n1` (single isomer, unassigned) [Example 105, (S)-1-(4-(1-ethyl-3-phenyl-1H-pyrazol-4-yl)-7-methoxyquinazolin-6-yl)ethan-1-ol or (R)-1-(4-(1-ethyl-3-phenyl-1H-pyrazol-4-yl)-7-methoxyquinazolin-6-yl)ethan-1-ol] are 3.3 nM, 6.5 nM and 1.3 nM.
On the same counts, the results for `CCn1cc(-c2ncnc3cc(OC)c([C@@H](C)O)cc23)c(-c2ccccc2)n1` (single isomer, unassigned) [Example 106, (R)-1-(4-(1-ethyl-3-phenyl-1H-pyrazol-4-yl)-7-methoxyquinazolin-6-yl)ethan-1-ol or (S)-1-(4-(1-ethyl-3-phenyl-1H-pyrazol-4-yl)-7-methoxyquinazolin-6-yl)ethan-1-ol] are 3.4 nM, 10.9 nM and 1.8 nM.
On the same counts, the results for `CCOc1cc2ncnc(-c3cn(CC)nc3-c3ccccc3)c2cc1[C@H](C)O` (single isomer, unassigned) [Example 107, (S)-1-(7-ethoxy-4-(1-ethyl-3-phenyl-1H-pyrazol-4-yl)quinazolin-6-yl)ethan-1-ol or (R)-1-(7-ethoxy-4-(1-ethyl-3-phenyl-1H-pyrazol-4-yl)quinazolin-6-yl)ethan-1-ol] are 1.3 nM, 3.3 nM and 0.6 nM.
As to `CCOc1cc2ncnc(-c3cn(CC)nc3-c3ccccc3)c2cc1[C@@H](C)O` (single isomer, unassigned) [Example 108, (R)-1-(7-ethoxy-4-(1-ethyl-3-phenyl-1H-pyrazol-4-yl)quinazolin-6-yl)ethan-1-ol or (S)-1-(7-ethoxy-4-(1-ethyl-3-phenyl-1H-pyrazol-4-yl)quinazolin-6-yl)ethan-1-ol], the IC50 amounted to 1.3 nM on EGFR L858R, 2.7 nM in assay [1] and 0.9 nM at EGFR (d746-750).
On the same counts, the results for `CCOc1cc2ncnc(-c3cn(C(C)C)nc3-c3ccccc3)c2cc1[C@@H](C)O` (single isomer, unassigned) [Example 109, (R)-1-(7-ethoxy-4-(1-isopropyl-3-phenyl-1H-pyrazol-4-yl)quinazolin-6-yl)ethan-1-ol or (S)-1-(7-ethoxy-4-(1-isopropyl-3-phenyl-1H-pyrazol-4-yl)quinazolin-6-yl)ethan-1-ol] are 3.8 nM, 4.7 nM and 2.2 nM.
On the same counts, the results for `CCOc1cc2ncnc(-c3cn(C(C)C)nc3-c3ccccc3)c2cc1[C@H](C)O` (single isomer, unassigned) [Example 110, (S)-1-(7-ethoxy-4-(1-isopropyl-3-phenyl-1H-pyrazol-4-yl)quinazolin-6-yl)ethan-1-ol or (R)-1-(7-ethoxy-4-(1-isopropyl-3-phenyl-1H-pyrazol-4-yl)quinazolin-6-yl)ethan-1-ol] are 1.8 nM, 2.5 nM and 1.4 nM.
On the same counts, the results for `CCOc1cc2ncnc(-c3cn(C4CC4)nc3-c3ccccc3)c2cc1[C@@H](C)O` (single isomer, unassigned) [Example 111, (R)-1-(4-(1-cyclopropyl-3-phenyl-1H-pyrazol-4-yl)-7-ethoxyquinazolin-6-yl)ethan-1-ol or (S)-1-(4-(1-cyclopropyl-3-phenyl-1H-pyrazol-4-yl)-7-ethoxyquinazolin-6-yl)ethan-1-ol] are 1.4 nM, 2.5 nM and 0.7 nM.
`CCOc1cc2ncnc(-c3cn(C4CC4)nc3-c3ccccc3)c2cc1[C@H](C)O` (single isomer, unassigned) [Example 112, (S)-1-(4-(1-cyclopropyl-3-phenyl-1H-pyrazol-4-yl)-7-ethoxyquinazolin-6-yl)ethan-1-ol or (R)-1-(4-(1-cyclopropyl-3-phenyl-1H-pyrazol-4-yl)-7-ethoxyquinazolin-6-yl)ethan-1-ol]: the concentration for half-maximal inhibition (IC50) at EGFR L858R is 1.9 nM; in assay [1], 3.8 nM; at EGFR (d746-750), 1.2 nM.
On the same counts, the results for `CC(C)Oc1cc2ncnc(-c3cn(C)nc3-c3ccccc3)c2cc1[C@H](C)O` (single isomer, unassigned) [Example 113, (S)-1-(7-isopropoxy-4-(1-methyl-3-phenyl-1H-pyrazol-4-yl)quinazolin-6-yl)ethan-1-ol or (R)-1-(7-isopropoxy-4-(1-methyl-3-phenyl-1H-pyrazol-4-yl)quinazolin-6-yl)ethan-1-ol] are 5.5 nM, 11.2 nM and 2.4 nM.
Consider `CC(C)Oc1cc2ncnc(-c3cn(C)nc3-c3ccccc3)c2cc1[C@@H](C)O` (single isomer, unassigned) [Example 114, (R)-1-(7-isopropoxy-4-(1-methyl-3-phenyl-1H-pyrazol-4-yl)quinazolin-6-yl)ethan-1-ol or (S)-1-(7-isopropoxy-4-(1-methyl-3-phenyl-1H-pyrazol-4-yl)quinazolin-6-yl)ethan-1-ol], for which the IC50 at EGFR L858R amounted to 2.9 nM; in assay [1] it was 28.9 nM; at EGFR (d746-750), 2.3 nM.
For the molecule `COc1cc2ncnc(-c3cn(C)nc3-c3ccccc3)c2cc1[C@@H](C)O` (single isomer, unassigned) [Example 115, (R)-1-(7-methoxy-4-(1-methyl-3-phenyl-1H-pyrazol-4-yl)quinazolin-6-yl)ethan-1-ol or (S)-1-(7-methoxy-4-(1-methyl-3-phenyl-1H-pyrazol-4-yl)quinazolin-6-yl)ethan-1-ol], the IC50 at EGFR L858R was 2.3 nM; in assay [1] it was 10.6 nM; on EGFR (d746-750) it was 1.2 nM.
On the same counts, the results for `COc1cc2ncnc(-c3cn(C)nc3-c3ccccc3)c2cc1[C@H](C)O` (single isomer, unassigned) [Example 116, (S)-1-(7-methoxy-4-(1-methyl-3-phenyl-1H-pyrazol-4-yl)quinazolin-6-yl)ethan-1-ol or (R)-1-(7-methoxy-4-(1-methyl-3-phenyl-1H-pyrazol-4-yl)quinazolin-6-yl)ethan-1-ol] are 1.2 nM, 11.5 nM and 1.1 nM.
On the same counts, the results for `C[C@H](O)c1cc2c(-c3cn(CC(F)F)nc3-c3ccccc3)ncnc2cc1O[C@H]1CCOC1` (single isomer, unassigned) [Example 117, (S)-1-(4-(1-(2,2-difluoroethyl)-3-phenyl-1H-pyrazol-4-yl)-7-(((S)-tetrahydrofuran-3-yl)oxy)quinazolin-6-yl)ethan-1-ol or (R)-1-(4-(1-(2,2-difluoroethyl)-3-phenyl-1H-pyrazol-4-yl)-7-(((S)-tetrahydrofuran-3-yl)oxy)quinazolin-6-yl)ethan-1-ol] are 1.9 nM, 3.4 nM and 0.6 nM.
Turning to `C[C@@H](O)c1cc2c(-c3cn(CC(F)F)nc3-c3ccccc3)ncnc2cc1O[C@H]1CCOC1` (single isomer, unassigned) [Example 118, (R)-1-(4-(1-(2,2-difluoroethyl)-3-phenyl-1H-pyrazol-4-yl)-7-(((S)-tetrahydrofuran-3-yl)oxy)quinazolin-6-yl)ethan-1-ol or (S)-1-(4-(1-(2,2-difluoroethyl)-3-phenyl-1H-pyrazol-4-yl)-7-(((S)-tetrahydrofuran-3-yl)oxy)quinazolin-6-yl)ethan-1-ol], the values for the IC50 (at EGFR L858R; in assay [1]; on EGFR (d746-750)) were 3.9 nM, 6 nM and 2.4 nM, respectively.
